In US9808445B2, “Factor IXa inhibitors” (Merck Sharp & Dohme Corp., priority 2014, dated 2017):

Biological target: human factor IXa (Homo sapiens (Human), UniProt P00740)
Experiment: Determination of inhibitory activity against factor IXa (fluorogenic substrate SPECTROFLUOR FIXa)
Type: biochemical
Conditions: Factor IXa enzyme assay human
Method: Inhibitory activity against factor IXa was tested using the substrate SPECTROFLUOR FIXa (american diagnostica inc.; 500 West Avenue, Stamford, Conn. 06902 USA; Pr. No. 299F) and human factor IXa (american diagnostica inc.; Pr. No. 449b). Test substances were dissolved in buffer A (50 mM α,α,α-tris (hydroxymethyl) methylamine (Tris), 100 mM NaCl, 5 mM CaCl2, 15% (v/v) ethylene glycol, pH 8.0) were mixed with factor IXa (0.1 μg/ml final concentration). The enzyme reaction was started by addition of SPECTROFLUOR FIXa (100 μM final concentration). After incubation for 60 minutes at room temperature, the reaction was stopped by the addition of 20% (v/v) acetic acid solution, and then the fluorescence value was measured (Excitation Wavelength: 355 nm, Emission Wavelength; 460 nm) in a microtiter plate reader (ARVO 1420 Multilabel Counter; PerkinElmer).
The IC50 was calculated from a dilution series of the test substance with the aid of the software, Symyx Assay Explorer (Symyx Technologies, Inc.).

Chain of human factor IXa (P00740 227-461): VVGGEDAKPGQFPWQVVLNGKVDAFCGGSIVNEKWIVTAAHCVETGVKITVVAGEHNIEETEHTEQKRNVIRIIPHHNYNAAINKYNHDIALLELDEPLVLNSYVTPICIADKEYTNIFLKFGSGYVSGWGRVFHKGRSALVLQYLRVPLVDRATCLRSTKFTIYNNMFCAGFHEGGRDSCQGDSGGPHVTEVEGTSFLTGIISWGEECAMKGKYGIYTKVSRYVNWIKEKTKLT
Chain of human factor IXa (P00740 47-191 partner): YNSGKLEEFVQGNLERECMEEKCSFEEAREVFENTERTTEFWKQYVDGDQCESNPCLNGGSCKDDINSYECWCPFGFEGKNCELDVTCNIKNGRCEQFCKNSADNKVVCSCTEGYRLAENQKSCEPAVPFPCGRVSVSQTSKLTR

Structure (SMILES) | IC50
Nc1noc2c(N3C[C@@H]4CC[C@H]3[C@@H]4NC(=O)c3ccc(-n4cnnc4)cc3Cl)cccc12 (relative stereo) [Example 1, N-((1S*,4S*, 7R*)-2-(3-Aminobenzo[d]isoxazol-7-yl)-2-azabicyclo[2.2.1]heptan-7-yl)-2-chloro-4-(4H-1,2,4-triazol-4-yl)benzamide] | ≤ 100 nM
Cc1ncn(-c2ccc(C(=O)N[C@@H]3[C@H]4CC[C@@H]3N(c3nccc5c(N)noc35)C4)c(Cl)c2)n1 (relative stereo) [Example 2, N-((1S*,4S*,7R*)-2-(3-Aminoisoxazolo[5,4-c]pyridin-7-yl)-2-azabicyclo[2.2.1]heptan-7-yl)-2-chloro-4-(3-methyl-1H-1,2,4-triazol-1-yl)benzamide] | ≤ 100 nM
Cc1cc(N2C[C@@H]3CC[C@H]2[C@@H]3NC(=O)c2c(Cl)cc(-n3cnc(C)n3)cc2Cl)c2onc(N)c2c1 (relative stereo) [Example 3, N-((1S*,4S*,7R*)-2-(3-Amino-5-methylbenzo[d]isoxazol-7-yl)-2-azabicyclo[2.2.1]heptan-7-yl)-2,6-dichloro-4-(3-methyl-1H-1,2,4-triazol-1-yl)benzamide] | ≤ 100 nM
Cc1ncn(-c2ccc(C(=O)N[C@@H]3[C@H]4CC[C@@H]3N(c3cc(Cl)cc5c(N)noc35)C4)c(Cl)c2)n1 (relative stereo) [Example 4, N-((1S*,4S*,7R*)-2-(3-Amino-5-chlorobenzo[d]isoxazol-7-yl)-2-azabicyclo[2.2.1]heptan-7-yl)-2-chloro-4-(3-methyl-1H-1,2,4-triazol-1-yl)benzamide] | ≤ 100 nM
Nc1noc2c(N3C[C@@H]4CC[C@H]3[C@@H]4NC(=O)c3ccc(-n4cnnc4)cc3Cl)ccc(Cl)c12 (relative stereo) [Example 5, N-((1S*,4S*,7R*)-2-(3-Amino-4-chlorobenzo[d]isoxazol-7-yl)-2-azabicyclo[2.2.1]heptan-7-yl)-2-chloro-4-(4H-1,2,4-triazol-4-yl)benzamide] | ≤ 100 nM
Nc1noc2c(N3C[C@@H]4CC[C@H]3[C@@H]4NC(=O)c3ccc(-n4cnnc4)cc3Cl)ncc(Cl)c12 (relative stereo) [Example 6, N-((1S*,4S*,7R*)-2-(3-Amino-4-chloroisoxazolo[5,4-c]pyridin-7-yl)-2-azabicyclo[2.2.1]heptan-7-yl)-2-chloro-4-(4H-1,2,4-triazol-4-yl)benzamide] | ≤ 100 nM
Nc1noc2c(N3C[C@@H]4CC[C@H]3[C@@H]4NC(=O)c3ccc(-c4cncnc4)cc3Cl)ncc(Cl)c12 (relative stereo) [Example 9, N-((1S*,4S*,7R*)-2-(3-Amino-4-chloroisoxazolo[5,4-c]pyridin-7-yl)-2-azabicyclo[2.2.1]heptan-7-yl)-2-chloro-4-(pyrimidin-5-yl)benzamide] | ≤ 100 nM
COc1ncc(-c2ccc(C(=O)N[C@@H]3[C@H]4CC[C@@H]3N(c3ncc(Cl)c5c(N)noc35)C4)c(Cl)c2)cn1 (relative stereo) [Example 10, N-((1S*,4S*,7R*)-2-(3-Amino-4-chloroisoxazolo[5,4-c]pyridin-7-yl)-2-azabicyclo[2.2.1]heptan-7-yl)-2-chloro-4-(2-methoxypyrimidin-5-yl)benzamide] | ≤ 100 nM
Nc1noc2c(N3C[C@@H]4CC[C@H]3[C@@H]4NC(=O)c3ccc(-c4ccnnc4)cc3Cl)ncc(Cl)c12 (relative stereo) [Example 12, N-((1S*,4S*,7R*)-2-(3-Amino-4-chloroisoxazolo[5,4-c]pyridin-7-yl)-2-azabicyclo[2.2.1]heptan-7-yl)-2-chloro-4-(pyridazin-4-yl)benzamide] | ≤ 100 nM
Nc1noc2c(N3C[C@@H]4CC[C@H]3[C@@H]4NC(=O)c3ccc(-n4cnnc4)cc3)ncc(Cl)c12 (relative stereo) [Example 13, N-((1S*,4S*,7R*)-2-(3-Amino-4-chloroisoxazolo[5,4-c]pyridin-7-yl)-2-azabicyclo[2.2.1]heptan-7-yl)-4-(4H-1,2,4-triazol-4-yl)benzamide] | ≤ 100 nM
Nc1noc2c(N3C[C@@H]4CC[C@H]3[C@@H]4NC(=O)c3ccc(-n4cnc(CCO)c4)cc3Cl)ncc(Cl)c12 (relative stereo) [Example 14, N-((1S*,4S*,7R*)-2-(3-Amino-4-chloroisoxazolo[5,4-c]pyridin-7-yl)-2-azabicyclo[2.2.1]heptan-7-yl)-2-chloro-4-(4-(2-hydroxyethyl)-1H-imidazol-1-yl)benzamide] | ≤ 100 nM
Cc1cc2c(N)noc2c(N2C[C@@H]3CC[C@H]2[C@@H]3NC(=O)c2ccc(-n3cc(CCO)nn3)cc2Cl)n1 (relative stereo) [Example 15, N-((1S*,4S*,7R*)-2-(3-Amino-5-methylisoxazolo[5,4-c]pyridin-7-yl)-2-azabicyclo[2.2.1]heptan-7-yl)-2-chloro-4-(4-(2-hydroxyethyl)-1H-1,2,3-triazol-1-yl)benzamide] | ≤ 100 nM
Nc1noc2c(N3C[C@@H]4CC[C@H]3[C@@H]4NC(=O)c3ccc(-n4cnnc4C(F)F)cc3Cl)ncc(Cl)c12 (relative stereo) [Example 16, N-((1S*,4S*,7R*)-2-(3-Amino-4-chloroisoxazolo[5,4-c]pyridin-7-yl)-2-azabicyclo[2.2.1]heptan-7-yl)-2-chloro-4-(3-(difluoromethyl)-4H-1,2,4-triazol-4-yl)benzamide] | ≤ 100 nM
Cc1cc2c(N)noc2c(N2C[C@@H]3CC[C@H]2[C@@H]3NC(=O)c2ccc(-c3cnc(C#N)nc3)cc2Cl)n1 (relative stereo) [Example 17, N-((1S*,4S*,7R*)-2-(3-Amino-5-methylisoxazolo[5,4-c]pyridin-7-yl)-2-azabicyclo[2.2.1]heptan-7-yl)-2-chloro-4-(2-cyanopyrimidin-5-yl)benzamide] | ≤ 100 nM
Cn1cc(-c2ccc(C(=O)N[C@@H]3[C@H]4CC[C@@H]3N(c3ncc(Cl)c5c(N)noc35)C4)c(Cl)c2)ccc1=O (relative stereo) [Example 18, N-((1S*,4S*,7R*)-2-(3-Amino-4-chloroisoxazolo[5,4-c]pyridin-7-yl)-2-azabicyclo[2.2.1]heptan-7-yl)-2-chloro-4-(1-methyl-6-oxo-1,6-dihydropyridin-3-yl)benzamide] | ≤ 100 nM
Nc1noc2c(N3C[C@@H]4CC[C@H]3[C@@H]4NC(=O)c3ccc(-c4ccc(=O)n(C(F)F)c4)cc3Cl)ncc(Cl)c12 (relative stereo) [Example 19, N-((1S*,4S*,7R*)-2-(3-Amino-4-chloroisoxazolo[5,4-c]pyridin-7-yl)-2-azabicyclo[2.2.1]heptan-7-yl)-2-chloro-4-(1-(difluoromethyl)-6-oxo-1,6-dihydropyridin-3-yl)benzamide] | ≤ 100 nM
Nc1noc2c(N3C[C@@H]4CC[C@H]3[C@@H]4NC(=O)c3ccc(-c4ccc5nncn5c4)cc3Cl)ncc(Cl)c12 (relative stereo) [Example 20, 4-([1,2,4]Triazolo[4,3-a]pyridin-6-yl)-N-((1S*,4S*,7R*)-2-(3-amino-4-chloroisoxazolo[5,4-c]pyridin-7-yl)-2-azabicyclo[2.2.1]heptan-7-yl)-2-chlorobenzamide] | ≤ 100 nM
Nc1noc2c(N3C[C@@H]4CC[C@H]3[C@@H]4NC(=O)c3ccc(-n4cnc5ccccc54)cc3Cl)ncc(Cl)c12 (relative stereo) [Example 21, N-((1S*,4S*,7R*)-2-(3-Amino-4-chloroisoxazolo[5,4-c]pyridin-7-yl)-2-azabicyclo[2.2.1]heptan-7-yl)-4-(1H-benzo[d]imidazol-1-yl)-2-chlorobenzamide] | ≤ 100 nM
Nc1noc2c(N3C[C@@H]4CC[C@H]3[C@@H]4NC(=O)c3ccc(-n4cnc5ncccc54)cc3Cl)ncc(Cl)c12 (relative stereo) [Example 22, N-((1S*,4S*,7R*)-2-(3-Amino-4-chloroisoxazolo[5,4-c]pyridin-7-yl)-2-azabicyclo[2.2.1]heptan-7-yl)-2-chloro-4-(1H-imidazo[4,5-b]pyridin-1-yl)benzamide] | ≤ 100 nM
Nc1noc2c(N3C[C@@H]4CC[C@H]3[C@@H]4NC(=O)c3ccc(-c4ccc(=O)n(CCO)c4)cc3Cl)ncc(Cl)c12 (relative stereo) [Example 23, N-((1S*,4S*,7R*)-2-(3-Amino-4-chloroisoxazolo[5,4-c]pyridin-7-yl)-2-azabicyclo[2.2.1]heptan-7-yl)-2-chloro-4-(1-(2-hydroxyethyl)-6-oxo-1,6-dihydropyridin-3-yl)benzamide] | ≤ 100 nM
Cn1nc(-c2ccc(C(=O)N[C@@H]3[C@H]4CC[C@@H]3N(c3ncc(Cl)c5c(N)noc35)C4)c(Cl)c2)ccc1=O (relative stereo) [Example 24, N-((1S*,4S*,7R*)-2-(3-Amino-4-chloroisoxazolo[5,4-c]pyridin-7-yl)-2-azabicyclo[2.2.1]heptan-7-yl)-2-chloro-4-(1-methyl-6-oxo-1,6-dihydropyridazin-3-yl)benzamide] | ≤ 100 nM
Cn1cc(-c2ccc(C(=O)N[C@@H]3[C@H]4CC[C@@H]3N(c3nc(C#N)cc5c(N)noc35)C4)c(Cl)c2)ccc1=O (relative stereo) [Example 25, N-((1S*,4S*,7R*)-2-(3-Amino-5-cyanoisoxazolo[5,4-c]pyridin-7-yl)-2-azabicyclo[2.2.1]heptan-7-yl)-2-chloro-4-(1-methyl-6-oxo-1,6-dihydropyridin-3-yl)benzamide] | ≤ 100 nM
Cc1cc2c(N)noc2c(N2C[C@@H]3CC[C@H]2[C@@H]3NC(=O)c2ccc(-n3cnnc3C(F)(F)F)cc2Cl)n1 (relative stereo) [Example 26, N-((1S*,4S*,7R*)-2-(3-Amino-5-methylisoxazolo[5,4-c]pyridin-7-yl)-2-azabicyclo[2.2.1]heptan-7-yl)-2-chloro-4-(3-(trifluoromethyl)-4H-1,2,4-triazol-4-yl)benzamide] | ≤ 100 nM
